Experimental data: patent US12540120B2, “Herbicidal compounds” (SYNGENTA CROP PROTECTION AG, priority 2019, dated 2026)

Tests used:
Assay type in all cases: in vivo
[1] = test system: Abutilon theophrasti (ABUTH); assay: B3 Post-Emergence Efficacy—Test 3; details: post-emergence application, 250 g/ha, evaluated after 13 days (Test 3)
Method: (§1) B3 Post-Emergence Efficacy—Test 3 Seeds of a variety of test species are sown in standard soil in pots:—Amaranthus retoflexus (AMARE), Setaria faberi (SETFA), Echinochloa crus-galli (ECHCG), Ipomoea hederacea (IPOHE), Zea Mays (ZEAMX), Abutilon theophrasti (ABUTH). After 8 days cultivation (post-emergence) under controlled conditions in a glasshouse (at 24/16° C., day/night; 14 hours light; 65% humidity), the plants are sprayed with an aqueous spray solution derived from the formulation of the technical active ingredient in acetone/water (50:50) solution containing 0.5% Tween 20 (polyoxyethylene sorbitan monolaurate, CAS RN 9005-64-5). Compounds are applied at 250 g/ha. The test plants are then grown in a glasshouse under controlled conditions in a glasshouse (at 24/16° C., day/night; 14 hours light; 65% humidity) and watered twice daily. After 13 days, the test is evaluated for the percentage damage caused to the plant. The biological activities are assessed on a five point scale (5=80-100%; 4=60-79%; 3=40-59%; 2=20-39%; 1=0-19%). A blank value in the table is indicative that the compound was not tested on that species.

[2] = test system: Amaranthus retoflexus (AMARE); assay: B3 Post-Emergence Efficacy—Test 3; details: post-emergence application, 250 g/ha, evaluated after 13 days (Test 3)
Method: as §1

Setaria faberi (SETFA) [3] = assay: B3 Post-Emergence Efficacy—Test 3; details: post-emergence application, 250 g/ha, evaluated after 13 days (Test 3)
Method: as §1

[4] = test system: Ipomoea hederacea (IPOHE); assay: B3 Post-Emergence Efficacy—Test 3; details: post-emergence application, 250 g/ha, evaluated after 13 days (Test 3)
Method: as §1

Zea Mays (ZEAMX) [5] = assay: B3 Post-Emergence Efficacy—Test 3; details: post-emergence application, 250 g/ha, evaluated after 13 days (Test 3)
Method: as §1

[6] = test system: Echinochloa crus-galli (ECHCG); assay: B3 Post-Emergence Efficacy—Test 3; details: post-emergence application, 250 g/ha, evaluated after 13 days (Test 3)
Method: as §1

[7] = test system: Abutilon theophrasti (ABUTH); assay: B6 Pre-Emergence Efficacy—Test 3; details: pre-emergence application, 250 g/ha, evaluated after 13 days (Test 3)
Method: (§2) B6 Pre-Emergence Efficacy—Test 3 Seeds of a variety of test species were sown in standard soil in pots: Amaranthus retoflexus (AMARE), Setaria faberi (SETFA), Echinochloa crus-galli (ECHCG), Ipomoea hederacea (IPOHE), Zea Mays (ZEAMX), Abutilon theophrasti (ABUTH). After cultivation for one day (pre-emergence) under controlled conditions in a glasshouse (at 24/16° C., day/night; 14 hours light; 65% humidity), the plants were sprayed with an aqueous spray solution derived from the formulation of the technical active ingredient in acetone/water (50:50) solution containing 0.5% Tween 20 (polyoxyethelyene sorbitan monolaurate, CAS RN 9005-64-5). Compounds are applied at 250 g/ha. The test plants were then grown in a glasshouse under controlled conditions (at 24/16° C., day/night; 14 hours light; 65% humidity) and watered twice daily. After 13 days, the test is evaluated for the percentage damage caused to the plant. The biological activities are assessed on a five point scale (5=80-100%; 4=60-79%; 3=40-59%; 2=20-39%; 1=0-19%). A blank value in the table is indicative that the compound was not tested on that species.

[8] = test system: Amaranthus retoflexus (AMARE); assay: B6 Pre-Emergence Efficacy—Test 3; details: pre-emergence application, 250 g/ha, evaluated after 13 days (Test 3)
Method: as §2

Setaria faberi (SETFA) [9] = assay: B6 Pre-Emergence Efficacy—Test 3; details: pre-emergence application, 250 g/ha, evaluated after 13 days (Test 3)
Method: as §2

[10] = test system: Ipomoea hederacea (IPOHE); assay: B6 Pre-Emergence Efficacy—Test 3; details: pre-emergence application, 250 g/ha, evaluated after 13 days (Test 3)
Method: as §2

Zea Mays (ZEAMX) [11] = assay: B6 Pre-Emergence Efficacy—Test 3; details: pre-emergence application, 250 g/ha, evaluated after 13 days (Test 3)
Method: as §2

[12] = test system: Echinochloa crus-galli (ECHCG); assay: B6 Pre-Emergence Efficacy—Test 3; details: pre-emergence application, 250 g/ha, evaluated after 13 days (Test 3)
Method: as §2

In the case of `Cc1nn(C)c(=O)c(-c2c(F)ccc(C3CC3)c2CCc2ccnc(F)c2)c1O` [Compound C-1.013, 4-[3-cyclopropyl-6-fluoro-2-[2-(2-fluoro-4-pyridyl)ethyl]phenyl]-5-hydroxy-2,6-dimethyl-pyridazin-3-one], the “percentage damage caused to the plant, five point scale, ABUTH” value [1] is reported as 4 (4=60-79%), the “percentage damage caused to the plant, five point scale, AMARE” value [2] is reported as 5 (5=80-100%) and the “percentage damage caused to the plant, five point scale, SETFA” value (Setaria faberi (SETFA) [3]) is reported as 4 (4=60-79%). The “percentage damage caused to the plant, five point scale, IPOHE” value [4] was 4 (4=60-79%), the “percentage damage caused to the plant, five point scale, ZEAMX” value (Zea Mays (ZEAMX) [5]) was 4 (4=60-79%) and the “percentage damage caused to the plant, five point scale, ECHCG” value [6] was 5 (5=80-100%). For the same compound, the “percentage damage caused to the plant, five point scale, ABUTH” value [7] was 5 (5=80-100%), the “percentage damage caused to the plant, five point scale, AMARE” value [8] was 5 (5=80-100%) and the “percentage damage caused to the plant, five point scale, SETFA” value (Setaria faberi (SETFA) [9]) was 5 (5=80-100%). The “percentage damage caused to the plant, five point scale, IPOHE” value [10] was 5 (5=80-100%), the “percentage damage caused to the plant, five point scale, ZEAMX” value (Zea Mays (ZEAMX) [11]) was 4 (4=60-79%) and the “percentage damage caused to the plant, five point scale, ECHCG” value [12] was 5 (5=80-100%).
